Results from ChEMBL document CHEMBL1147744, “Discovery of two novel, small-molecule inhibitors of DNA methylation” (J Med Chem, 2006).

Tests used:
[1] = molecular target: DNA (cytosine-5)-methyltransferase 1 (Homo sapiens, UniProt P26358); experiment: Inhibitory activity against DNA methyl transferase in leukemic NALM6 cells; type: cell-based, NALM-6
[2] = molecular target: Orphan methyltransferase M.SssI (Spiroplasma monobiae, UniProt P15840); experiment: Inhibition of recombinant CpG methylase M.SssI
Orphan methyltransferase M.SssI, sequence (P15840 whole entry): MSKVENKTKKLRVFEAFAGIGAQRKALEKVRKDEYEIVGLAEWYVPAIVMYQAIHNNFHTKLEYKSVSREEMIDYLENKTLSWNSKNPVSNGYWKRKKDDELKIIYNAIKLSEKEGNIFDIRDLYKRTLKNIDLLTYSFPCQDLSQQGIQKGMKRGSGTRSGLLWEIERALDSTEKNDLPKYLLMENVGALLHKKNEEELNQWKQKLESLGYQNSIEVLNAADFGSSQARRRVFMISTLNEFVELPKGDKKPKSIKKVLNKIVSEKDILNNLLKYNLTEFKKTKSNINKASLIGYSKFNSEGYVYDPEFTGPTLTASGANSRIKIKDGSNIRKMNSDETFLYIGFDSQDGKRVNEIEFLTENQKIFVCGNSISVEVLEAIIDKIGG

DNA (cytosine-5)-methyltransferase 1, sequence (P26358 whole entry): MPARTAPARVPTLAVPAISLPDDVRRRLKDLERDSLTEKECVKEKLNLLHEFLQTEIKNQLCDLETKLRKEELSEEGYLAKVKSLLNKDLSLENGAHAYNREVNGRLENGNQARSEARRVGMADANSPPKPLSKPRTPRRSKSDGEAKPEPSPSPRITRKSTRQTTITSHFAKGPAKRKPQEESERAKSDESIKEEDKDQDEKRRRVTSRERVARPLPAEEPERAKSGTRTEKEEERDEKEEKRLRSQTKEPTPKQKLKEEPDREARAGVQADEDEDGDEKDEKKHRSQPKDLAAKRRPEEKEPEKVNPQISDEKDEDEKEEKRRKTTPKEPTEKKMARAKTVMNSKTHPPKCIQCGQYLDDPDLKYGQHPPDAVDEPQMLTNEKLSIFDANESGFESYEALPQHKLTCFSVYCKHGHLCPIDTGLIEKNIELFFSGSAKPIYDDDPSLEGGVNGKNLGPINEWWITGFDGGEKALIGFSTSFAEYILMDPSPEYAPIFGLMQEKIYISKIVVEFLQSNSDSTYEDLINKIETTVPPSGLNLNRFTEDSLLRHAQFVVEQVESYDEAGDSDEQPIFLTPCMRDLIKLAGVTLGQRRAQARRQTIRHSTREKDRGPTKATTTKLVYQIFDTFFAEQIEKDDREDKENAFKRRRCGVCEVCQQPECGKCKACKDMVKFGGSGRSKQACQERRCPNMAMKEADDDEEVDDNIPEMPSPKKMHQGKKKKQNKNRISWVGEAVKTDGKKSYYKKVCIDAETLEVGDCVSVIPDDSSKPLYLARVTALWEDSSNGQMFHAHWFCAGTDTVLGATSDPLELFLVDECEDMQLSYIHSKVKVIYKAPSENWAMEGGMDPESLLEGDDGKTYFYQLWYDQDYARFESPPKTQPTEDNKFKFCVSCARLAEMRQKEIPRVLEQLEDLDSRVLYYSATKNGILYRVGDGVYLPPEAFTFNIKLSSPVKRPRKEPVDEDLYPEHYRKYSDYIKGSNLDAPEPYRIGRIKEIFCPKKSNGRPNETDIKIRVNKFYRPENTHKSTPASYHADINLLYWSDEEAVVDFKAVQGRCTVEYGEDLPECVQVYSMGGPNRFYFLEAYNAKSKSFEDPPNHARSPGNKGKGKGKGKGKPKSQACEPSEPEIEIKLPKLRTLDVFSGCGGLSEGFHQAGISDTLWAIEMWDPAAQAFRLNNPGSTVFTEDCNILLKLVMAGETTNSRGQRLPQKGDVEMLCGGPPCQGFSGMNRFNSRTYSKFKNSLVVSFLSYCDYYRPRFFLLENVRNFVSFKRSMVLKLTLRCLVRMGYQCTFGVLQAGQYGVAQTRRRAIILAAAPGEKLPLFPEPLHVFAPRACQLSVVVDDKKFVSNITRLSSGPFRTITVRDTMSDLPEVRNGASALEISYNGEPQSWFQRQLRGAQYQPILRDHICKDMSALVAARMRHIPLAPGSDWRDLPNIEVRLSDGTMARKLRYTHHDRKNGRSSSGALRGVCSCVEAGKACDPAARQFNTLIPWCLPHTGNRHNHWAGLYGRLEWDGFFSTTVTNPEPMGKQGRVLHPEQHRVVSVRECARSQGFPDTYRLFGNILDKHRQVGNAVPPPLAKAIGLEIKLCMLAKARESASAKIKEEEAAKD

Row | IC50 [1] | IC50 [2] | SMILES
1 | 50 µM | 0.6 µM | O=C(O)C(Cc1c[nH]c2ccccc12)N1C(=O)c2ccccc2C1=O (centres undefined)
2 | 100 µM | 0.4 µM | Cc1ccn2c(CCc3nnc4cc(C)ccn34)nnc2c1
